Experimental findings from US20100204149A1, “USE OF OCTREOTIDE AS A THERAPEUTIC AGENT” (priority 2007, published 2010) are described below.

In experiment [1] the test system is Primary Human endothelial cells (HUVEC). The experiment can be described thus: Endothelial cell migration assay. Type of experiment: cell-based. The settings on record: peptide 10 micrograms per ml, 22 hours. The protocol: Endothelial cell migration is a prerequisite for the process of neo-vascularization or angiogenesis which is crucial for on-site recruitment of blood vessel formation. Primary Human endothelial cells (HUVEC) were seeded in insert chambers with 3 micrometer pore size of multi-transwell plate for 6 hours at 37° C. in Endothelial Cell Basal Medium (EBM) supplemented with 0.1% bovine serum albumin. Thereafter, designated concentration of test peptide—10 micrograms per ml—was added in duplicate wells. The endothelia were allowed to migrate for 22 hours at 37° C., then, migrated cells were fixed and stained with Hoechst 33342 dye. Images of 3 fields per insert were taken and the number of migrated cells per field were quantified using the ImageProPlus software. Data were analyzed for the average number of the migrated cells and standard deviation of six data points for each treatment condition. Active test peptide against HUVEC migration was determined based on 50% inhibition of migrated cells as compared with the control. Statistic p values were computed using the Student's t-test.

The test system of experiment [2] is macrophages from human PBMC. The experiment can be described thus: TNF alpha production assay in LPS-stimulated macrophages. In kind it is cell-based. Conditions: TNF alpha ELISA; peptide 10 micrograms per ml; lipopolysaccharide 200 ng/ml; overnight. On the procedure: The macrophages were prepared by adherence of PBMC to the plastic wells of the plates. After 8 days in culture in the presence of recombinant human macrophage-colony stimulating factor at 2 ng/ml, differentiated macrophages were preincubated with test peptide—10 micrograms per ml—for 30 min, followed by in-well stimulation by the addition of lipopolysaccharide at a final concentration of 200 ng/ml. Not stimulated macrophages served as negative background control.
After overnight incubation, supernatants from the control and LPS-stimulated cultures were harvested and assayed for TNF alpha production employing a TNF alpha specific ELISA.
A general note: In an ELISA, binding on a coated surface is turned into a signal by an enzyme label.

Another experiment deals with MRSA. The experiment can be described thus: Methicillin Resistant Staphylococcus Aureus (MRSA) assay. Type of experiment: cell-based. The settings on record: peptide 10 micrograms per ml, read visually. On the procedure: The antibacterial assay was conducted using clear, U-bottom 96-well microtiter plates. Cation-adjusted Mueller-Hinton Broth (MHB) was used for testing MRSA. The peptide of the invention (0.1 ml of each—10 micrograms per ml—) was dispensed into wells in duplicate. Then the wells were inoculated with 5×10^5 CFU/mL MRSA in 0.1 ml volume. For control purposes, each plate included 4 wells containing media without bacterial inoculum and 4 wells containing medium with inoculum but without peptide. The plates were incubated for 12 h at 37° C., and read visually 18-24 hours post-incubation. Growth control of MRSA was examined first to determine adequacy of media preparations and growth conditions. Acceptable growth is defined as ≧2 mm wide button of cells at the bottom of each sample well, or obvious turbidity in the culture supernatant. Test wells were examined and scored as positive/negative for activity. A positive score for activity is based on complete inhibition of macroscopic growth of the test MRSA.

Another experiment relates to HIV-1IIIB. The experiment can be described thus: HIV-1 antiviral assay (CPE reduction) in CEM-SS cells. The settings on record: peptide 10 micrograms per ml; 6 days post-infection; MTS.
The next experiment deals with Human A549 cells. The experiment can be described thus: Propidium iodide cell cycle assay. Type of experiment: cell-based. Conditions: peptide 10 micrograms per ml, 24 hours. From the text: Human A549 cells (carcinomic human alveolar basal epithelial cells) were utilized in the experiments employing the Propidium iodide cell cycle assay. The eukaryotic cell cycle is a series of events that take place in a cell leading to its replication. The regulation of the cell cycle involves steps crucial to the cell, including detecting and repairing genetic damage, and provision of various checks to prevent uncontrolled cell division. The molecular events that control the cell cycle are ordered and directional; that is, each process occurs in a sequential fashion. The cell cycle consists of four distinct phases: G1 phase, S phase, G2 phase (collectively known as interphase) and M phase. M phase is itself composed of two tightly coupled processes: mitosis, in which the cell's chromosomes are divided between the two daughter cells, and cytokinesis, in which the cell's cytoplasm divides forming distinct cells. Activation of each phase is dependent on the proper progression and completion of the previous one. Cells that have temporarily or reversibly stopped dividing are said to have entered a state of quiescence called Go phase. The relatively brief M phase consists of nuclear division and cytoplasmic division. The first phase within interphase, from the end of the previous M phase till the beginning of DNA synthesis is called G1 (G indicating gap or growth). During this phase the biosynthetic activities of the cell resume at a high rate. This phase is marked by synthesis of various enzymes that are required in S phase, mainly those needed for DNA replication. The ensuing S phase starts when DNA synthesis commences; when it is complete, all of the chromosomes have been replicated. The cell then enters the G2 phase, which lasts until the cell enters mitosis. Significant protein synthesis occurs during this phase, mainly involving the production of microtubules, which are required during the process of mitosis. […]
Propidium iodide is an intercalating agent and a fluorescent molecule that can be used to stain DNA. […] After incubation for 40 min at 37° C., cells were analyzed in the FACS.

Experiment [3] relates to Human Peripheral Blood Mononuclear Cells (PBMC). Conditions: B cell proliferation; peptide 10 micrograms per ml; 3 days.
Description: Human Peripheral Blood Mononuclear Cells (PBMC) were obtained from normal human donors. The B cell proliferation was induced by stimulation of the cells with the B cell mitogen Staphylococcus aureus Cowans I (SAC) plus Interleukin-2, either in the absence (positive proliferation control), or in the presence of test peptide—10 micrograms per ml—to examine their effects on the B cell response. 10^5/well PBMC were plated in 96-well microtiter plates and assayed in duplicate with the peptide. Cell cultures were incubated at 37° C. for 3 days in a 5% CO2 incubator and were thereafter pulsed with 1 microCi/well ^3H-thymidine for additional 12 hours of culture. At the end of incubation time, the plates were harvested and the cells counted by liquid scintillation for the incorporation of ^3H-thymidine as a measure of B cell proliferation.
The test system of a further experiment is HUVEC. The experiment is described as follows: Endothelial tube formation assay. In kind it is cell-based, human. The settings on record: peptide 10 micrograms per ml, 20 hours. On the procedure: The endothelial tube formation assay is based on the ability of endothelial cells to form three-dimensional capillary-like tubular structures when cultured on a gel of basement membrane extract. The endothelial tube formation assay represents a powerful model for studying inhibition and induction of angiogenesis. Pre-labeled HUVEC with Calcein AM were seeded in a 96-well culture plate coated with extracellular metrix (Chemicon international Cat. ECM625) and treated with test peptide—10 micrograms per ml—in full growth medium. […] control was vehicle only. The endothelial cells were allowed to form tubes for 20 hours and were then examined under an inverted fluorescent microscope. Duplicate wells for each treatment were photographed and quantitatively analyzed for an average tubule length using image analysis software ImageProPlus. Raw data were expressed as average tubule lengths in pixels ±standard deviation. Statistic p values were computed using the Student's t-test.

By % inhibition is commonly meant the relative decrease from the control value, in per cent. As for `C[C@@H](O)[C@@H]1NC(=O)[C@H](CCCCN)NC(=O)[C@@H](Cc2c[nH]c3ccccc23)NC(=O)[C@H](Cc2ccccc2)NC(=O)[C@@H](NC(=O)[C@H](N)Cc2ccccc2)CSSC[C@@H](C(=O)N[C@H](CO)[C@@H](C)O)NC1=O` [Octreotide, H-D-Phe-Cys-Phe-D-Trp-Lys-Thr-Cys-L-threoninol], the “% inhibition of migration” value in experiment [1] was −24%. In addition, in experiment [2], the “% of LPS induction” value was determined as 105.8%. Besides, in the experiment on MRSA, the “% inhibition” value was determined as 0.0%. Moreover, the “% CPE reduction in HIV-1 infected CEM-SS cells” value in the experiment with HIV-1IIIB is listed as 0.0%. Also, in the experiment on Human A549 cells, the “Cell cycle analysis G0/G1” value was determined as 59.1, the “Cell cycle analysis G2/M” value is listed as 9.2 and the “Cell cycle analysis S” value is given as 31.8. Further, in experiment [3], the “% of SAC/IL2 induced control” value was found to be 115.3%. Besides, in the experiment on HUVEC, the “% inhibition of tube formation” value turned out to be 8%.
